One assay has as its system VCaP cells. As to the kind of experiment: Cellular growth inhibition assay for VCaP cells (CellTiter-Glo, 72 hours). It counts as cell-based, human. The method in brief: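 Luminescent viability signal after 72 h of compound exposure gave GI50 values by four-parameter nonlinear regression. Compounds were added in 0.5% DMSO to cells plated 24 h earlier at 5000/well in DMEM containing 10% FBS.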

Assay [1] deals with T-Rex 293 cell line SC3 cells lacking increased expression of androgen receptor protein. As to the kind of experiment: Cellular growth inhibition assay, T-Rex 293 SC3 cells without doxycycline (CellTiter-Glo, 72 hours). To be noted: T-Rex 293 cell line SC3 cells not exposed to doxycycline (lacking increased androgen receptor expression). Type of assay: cell-based. Put shortly: (§1)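 Growth inhibition is measured in an inducible AR-expressing T-Rex 293 clone, SC3, cultured with or without 10 ng/mL doxycycline in hormone-depleted medium. Test compounds are applied for 72 hours. GI50 values derive from CellTiter-Glo 2.0 signal fitted by four-parameter regression.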
On the technique in general: In ATP-based viability assays light output follows the ATP content of the culture.

For assay [2], the system named is T-Rex 293 cell line SC3 cells having increased expression of androgen receptor protein due to exposure to doxycycline. The assay is described as follows: Cellular growth inhibition assay, T-Rex 293 SC3 cells with doxycycline (CellTiter-Glo, 72 hours). To be noted: T-Rex 293 SC3 cells with increased androgen receptor expression due to doxycycline (10 ng/mL). Type of assay: cell-based. The method in brief: as §1

Structures are written as SMILES. Like-named read-outs stand apart in the source and are kept apart here. Bounds are passed on as bounds.

Take `Cc1sc2c(c1C)C(c1ccc(CCCC3CCCN(c4ccc(C(=O)N[C@H]5CC[C@H](Oc6ccc(C#N)c(Cl)c6)CC5)nn4)CC3)cc1)=N[C@@H](C)c1nnc(C)n1-2` (stereo partly drawn) [I-670]: the GI50 (with VCaP cells; in assay [1]; in assay [2]) was less than 500 nM throughout.

Consider `Cc1sc2c(c1C)C(c1ccc(CCCC3CCCN(c4ccc(C(=O)N[C@H]5CC[C@H](Oc6ccc(C#N)c(Cl)c6)CC5)nn4)CC3)nc1)=N[C@@H](C)c1nnc(C)n1-2` (stereo partly drawn) [I-671], for which the concentration for 50% growth inhibition (GI50) is less than 500 nM in the assay with VCaP cells (Homo sapiens, VCaP, 72 h); less than 500 nM in assay [1] (72 h); less than 500 nM in assay [2] (72 h).

Take `Cc1sc2c(c1C)C(c1ccc(CCCC3CCCN(c4ccc(C(=O)N[C@H]5CC[C@H](Oc6ccc(C#N)c(Cl)c6)CC5)nn4)CC3)nc1)=N[C@@H](C)c1nnc(C)n1-2` (stereo partly drawn) [I-672]: the GI50 (in the assay on VCaP cells; in assay [1]; in assay [2]) was less than 500 nM each time.

Consider `Cc1sc2c(c1C)C(c1ccc(C3CCC4(CCCN(c5ccc(C(=O)N[C@H]6CC[C@H](Oc7ccc(C#N)c(Cl)c7)CC6)nn5)C4)CC3)cc1)=N[C@@H](C)c1nnc(C)n1-2` (stereo partly drawn) [I-673], for which the GI50 in the assay with VCaP cells (Homo sapiens, VCaP, 72 h) is less than 500 nM; in assay [1] (72 h) it was greater than 3000 nM; in assay [2] (72 h), less than 500 nM.

Take `Cc1sc2c(c1C)C(c1ccc(C3CCC4(CCCN(c5ccc(C(=O)N[C@H]6CC[C@H](Oc7ccc(C#N)c(Cl)c7)CC6)nn5)C4)CC3)cc1)=N[C@@H](C)c1nnc(C)n1-2` (stereo partly drawn) [I-674]: the GI50 was less than 500 nM with VCaP cells, greater than 3000 nM in assay [1] and less than 500 nM in assay [2].

With `Cc1sc2c(c1C)C(c1ccc(N3C[C@@]4(F)CN(c5ccc(C(=O)N[C@H]6CC[C@H](Oc7ccc(C#N)c(Cl)c7)CC6)nn5)C[C@@]4(F)C3)cc1)=N[C@@H](C)c1nnc(C)n1-2` [I-675], the GI50 was less than 500 nM in the assay with VCaP cells (Homo sapiens, VCaP, 72 h); less than 500 nM in assay [1] (72 h); less than 500 nM in assay [2] (72 h).

As to `Cc1sc2c(c1C)C(c1ccc(N3C[C@@H]4CN(c5ccc(C(=O)N[C@H]6CC[C@H](Oc7ccc(C#N)c(Cl)c7)CC6)nn5)C[C@@H]4C3)cc1F)=N[C@@H](C)c1nnc(C)n1-2` [I-676], the GI50 was less than 500 nM in the assay on VCaP cells (Homo sapiens, VCaP, 72 h); less than 500 nM in assay [1] (72 h); less than 500 nM in assay [2] (72 h).

Take `Cc1sc2c(c1C)C(c1ccc(C/C=C/C3CN(c4ccc(C(=O)N[C@H]5CC[C@H](Oc6ccc(C#N)c(Cl)c6)CC5)nn4)C3)cc1)=N[C@@H](Cc1ncco1)c1nnc(C)n1-2` [I-678]: the concentration for 50% growth inhibition (GI50) in the assay on VCaP cells (Homo sapiens, VCaP, 72 h) is greater than 3000 nM; in assay [1] (72 h), greater than 3000 nM; in assay [2] (72 h), less than 500 nM.

In the case of `Cc1sc2c(c1C)C(c1cccc(OC3CCN(c4ccc(C(=O)N[C@H]5CC[C@H](Oc6ccc(C#N)c(Cl)c6)CC5)nn4)CC3)c1)=N[C@@H](C)c1nnc(C)n1-2` [I-680], the GI50 in the assay on VCaP cells (Homo sapiens, VCaP, 72 h) was less than 500 nM; in assay [1] (72 h) it was greater than 3000 nM; in assay [2] (72 h) it was less than 500 nM.

Consider `Cc1sc2c(c1C)C(c1cccc(OCC3CCN(c4ccc(C(=O)N[C@H]5CC[C@H](Oc6ccc(C#N)c(Cl)c6)CC5)nn4)CC3)c1)=N[C@@H](C)c1nnc(C)n1-2` [I-681], for which the concentration for 50% growth inhibition (GI50) is less than 500 nM in the assay with VCaP cells (Homo sapiens, VCaP, 72 h); greater than 3000 nM in assay [1] (72 h); greater than 3000 nM in assay [2] (72 h).

As to `Cc1sc2c(c1C)C(c1cccc(N3CCC4(CCN(c5ccc(C(=O)N[C@H]6CC[C@H](Oc7ccc(C#N)c(Cl)c7)CC6)nn5)C4)C3)c1)=N[C@@H](C)c1nnc(C)n1-2` (stereo partly drawn) [I-682], the concentration for 50% growth inhibition (GI50) was 500 to 1500 nM with VCaP cells (Homo sapiens, VCaP, 72 h); 500 to 1500 nM in assay [1]; less than 500 nM in assay [2] (72 h).

`Cc1sc2c(c1C)C(c1cccc(N3CC4(CCN(c5ccc(C(=O)N[C@H]6CC[C@H](Oc7ccc(C#N)c(Cl)c7)CC6)nn5)CC4)C3)c1)=N[C@@H](C)c1nnc(C)n1-2` [I-683]: the concentration for 50% growth inhibition (GI50) was greater than 3000 nM in the assay with VCaP cells (Homo sapiens, VCaP, 72 h); greater than 3000 nM in assay [1] (72 h); greater than 3000 nM in assay [2] (72 h).

In the case of `Cc1sc2c(c1C)C(c1cccc(CC3CC4(CCN(c5ccc(C(=O)N[C@H]6CC[C@H](Oc7ccc(C#N)c(Cl)c7)CC6)nn5)CC4)C3)c1)=N[C@@H](C)c1nnc(C)n1-2` [I-684], the 50% growth inhibitory concentration (GI50) is 500 to 1500 nM with VCaP cells (Homo sapiens, VCaP, 72 h); greater than 3000 nM in assay [1] (72 h); less than 500 nM in assay [2] (72 h).

By GI50 is commonly meant the concentration giving 50% growth inhibition. Lower therefore signals greater sensitivity of the cells.
